Measurements published in US20260176320A1, “MODULATORS OF G-PROTEIN COUPLED RECEPTORS” (priority 2018, published 2026).
Where two headings read alike, the source gives them in different places.

Legend:
GLP-1R [1] = target: T1, GLP-1R (Homo sapiens, UniProt P43220); assay: PathHunter β-arrestin assay; format: cell-based
Method in brief: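 Cells (5,000/well) plated overnight, then exposed to a 22-point 2-fold agonist dilution series in medium with 0.2% BSA for 90 min at 37 °C, 5% CO2. PathHunter detection reagent added; after 3 h at room temperature in the dark, luminescence read.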

mice [2] = assay: Glucose tolerance test (GTT); format: in vivo, mouse; settings: 24 h GTT, s.c., percent of vehicle
Method in brief: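 Compounds diluted in PBS from 1 mM DMSO stocks and given subcutaneously 15 min (5-6 h fast), 4 h (16 h overnight fast), 16 h or 24 h before intraperitoneal glucose (2 g/kg). Tail blood glucose read at 10–120 min post-glucose, at least 6 mice per time-point. Glucose AUC over time determined.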

GLP-1R [3] = target: T1, GLP-1R; assay: HitHunter cAMP assay (GLP-1R); format: cell-based; settings: for Emax: read-out: (Emax) GLP-1R
Method in brief: (§1)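 Suspension cells (10,000/well) in HBSS with 10 mM HEPES, 625 μM IBMX, 0.2% BSA exposed to 22-point 2-fold agonist series in duplicate for 30 min at room temperature. cAMP measured by antibody immunocompetition with overnight development, luminescence read-out.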

GIP-R = target: T2, GIP-R (Homo sapiens, UniProt P48546); assay: HitHunter cAMP assay (GIP-R); format: cell-based; settings: for EC50: EC50 GIP-R/nM; for Emax: read-out: (Emax) GIP-R
T2 sequence (P48546 22-466): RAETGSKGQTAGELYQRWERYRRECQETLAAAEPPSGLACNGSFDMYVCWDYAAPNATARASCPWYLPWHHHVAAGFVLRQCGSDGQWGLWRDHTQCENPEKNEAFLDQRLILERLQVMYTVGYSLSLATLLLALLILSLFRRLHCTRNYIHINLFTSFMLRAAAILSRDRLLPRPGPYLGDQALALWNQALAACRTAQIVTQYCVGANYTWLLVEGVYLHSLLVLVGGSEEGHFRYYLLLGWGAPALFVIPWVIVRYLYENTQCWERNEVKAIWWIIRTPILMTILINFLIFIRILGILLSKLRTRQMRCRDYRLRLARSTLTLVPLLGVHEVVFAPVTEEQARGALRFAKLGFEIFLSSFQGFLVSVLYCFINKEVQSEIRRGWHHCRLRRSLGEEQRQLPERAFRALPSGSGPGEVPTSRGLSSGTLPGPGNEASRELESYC
Method in brief: as §1

mice [4] = assay: Conditioned taste aversion (CTA) in mice; format: in vivo, mouse; settings: s.c., 30 nmol/kg, saccharine preference vs vehicle
Protocol: A value of CTA=0.0-0.6 indicates significant aversion to a compound. The conditioned taste aversion assay measures the preference for a dilute saccharin solution that is associated with compound administration.
One week before start of experiment (Day-7), animals were transferred to single house double grommet cages. A 50 ml water bottle was placed, and consistently replaced when refilled in the same grommet to habituate the animal to a “water” side. After 7 days of baseline water consumption, animals began the taste preference procedure. On Day 1, the animals were weighed and deprived of water at […]. On acquisition day (Day 2), mice had access to a single bottle containing 0.15% saccharin solution, on the opposite side to the “water” habituated side and allowed to consume for 3 h, from 6 pm until 9 pm. The saccharine bottles were then removed and weighed to record the 3 h consumption. […] On Day 3, the water was removed and weighed at 6 pm. On Day 4, both saccharine and water bottles were weighed and returned simultaneously to respective grommet at 6 pm. On Day 5, the bottles were removed at 6 pm and weighed. Saccharine consumption was measured as a percent of the total amount of fluid consumed. The reduction of saccharin consumption during the retrieval was used as a measure of CTA strength. Liraglutide and semaglutide were used as positive controls.

mice [5] = settings: general statement; cited from earlier work
GLP-1R [6] = target: T1, GLP-1R; settings: general statement; cited from earlier work

T1 sequence (P43220 24-463): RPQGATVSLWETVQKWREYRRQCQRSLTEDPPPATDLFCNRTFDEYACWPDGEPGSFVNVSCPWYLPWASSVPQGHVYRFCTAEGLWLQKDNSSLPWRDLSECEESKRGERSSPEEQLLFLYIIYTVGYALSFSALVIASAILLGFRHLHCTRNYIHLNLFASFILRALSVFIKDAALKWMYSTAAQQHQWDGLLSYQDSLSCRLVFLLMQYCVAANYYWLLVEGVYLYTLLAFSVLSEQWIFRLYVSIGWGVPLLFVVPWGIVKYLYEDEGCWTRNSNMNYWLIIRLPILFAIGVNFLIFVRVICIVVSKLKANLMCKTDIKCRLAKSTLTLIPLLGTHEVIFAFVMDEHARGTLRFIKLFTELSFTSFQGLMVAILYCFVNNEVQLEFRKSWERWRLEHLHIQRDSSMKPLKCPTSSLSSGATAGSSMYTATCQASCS

Compound | EC50 (GLP-1R [1]) [nM] | AUC score (mice [2]; dose range 2-5 nmol/kg) | EC50 (GLP-1R [3]; EC50 GLP-1R/nM, Table 3, cAMP) [nM] | EC50 (GLP-1R [3]; EC50 GLP-1R/nM, Table 3A, cAMP) [nM] | Emax (GLP-1R [3]; Table 3, cAMP) [%] | Emax (GLP-1R [3]; Table 3A, cAMP) [%] | EC50 (GIP-R; Table 3, cAMP) [nM] | EC50 (GIP-R; Table 3A, cAMP) [nM] | Emax (GIP-R; Table 3, cAMP) [%] | Emax (GIP-R; Table 3A, cAMP) [%] | CTA score (mice [4]) | signal in conditioned taste aversion models (mice [5]) | AUC score (mice [2]; dose range 5.1-15 nmol/kg) | β-arrestin recruitment (GLP-1R [6]) | EC50 (GLP-1R [3]) [nM] | Emax (GLP-1R [3]) [%] | Emax (GIP-R) [%]
CCCCCCCCCCCCCCCC(=O)N[C@@H](CCC(=O)NCCCC[C@H](NC(=O)[C@H](CO)NC(=O)[C@@H]1CCCN1C(=O)[C@@H]1CCCN1C(=O)[C@@H]1CCCN1C(=O)[C@H](C)NC(=O)CNC(=O)[C@H](CO)NC(=O)[C@H](CO)NC(=O)[C@@H]1CCCN1C(=O)CNC(=O)CNC(=O)[C@H](C)NC(=O)[C@H](CC(C)C)NC(=O)[C@H](CC(C)C)NC(=O)[C@H](Cc1c[nH]c2ccccc12)NC(=O)[C@H](CC(N)=O)NC(=O)[C@@H](NC(=O)[C@H](Cc1ccccc1)NC(=O)[C@H](CCC(=O)O)NC(=O)C(C)(C)NC(=O)[C@H](C)NC(=O)[C@H](C)NC(=O)[C@H](CCC(N)=O)NC(=O)[C@H](CCCCN)NC(=O)[C@H](CC(=O)O)NC(=O)[C@H](CC(C)C)NC(=O)[C@H](Cc1ccc(O)cc1)NC(=O)[C@@H](NC(=O)[C@H](CO)NC(=O)[C@H](Cc1ccc(O)cc1)NC(=O)[C@H](CC(=O)O)NC(=O)[C@H](CO)NC(=O)[C@@H](NC(=O)[C@H](Cc1ccccc1)NC(=O)[C@@H](NC(=O)CNC(=O)[C@H](CCC(=O)O)NC(=O)CSCC(=O)NCCN1C(=O)C[C@H](C)C1=O)[C@@H](C)O)[C@@H](C)O)[C@@H](C)CC)C(C)C)C(N)=O)C(=O)O [Compound 91] | > 1000 | 3 (AUC score 3 = 51-75%) | 1 to 10 | 1 to 10 | 98 | 98 | 1 to 10 | 1 to 10 | 85 | 85 | 4 (Score 4 = 76-100%) |  |  |  |  |  | 
CCCCCCCCCCCCCCCC(=O)N[C@@H](CCC(=O)NCCCC[C@H](NC(=O)[C@H](C)NC(=O)[C@H](C)NC(=O)[C@H](CCC(N)=O)NC(=O)CNC(=O)[C@H](CCC(=O)O)NC(=O)[C@H](CC(C)C)NC(=O)[C@H](Cc1ccc(O)cc1)NC(=O)[C@H](CO)NC(=O)[C@H](CO)NC(=O)[C@@H](NC(=O)[C@H](CC(=O)O)NC(=O)[C@H](CO)NC(=O)[C@@H](NC(=O)[C@H](Cc1ccccc1)NC(=O)[C@@H](NC(=O)CNC(=O)[C@H](CCC(=O)O)NC(=O)[C@H](C)NC(=O)[C@@H](N)Cc1cnc[nH]1)[C@@H](C)O)[C@@H](C)O)C(C)C)C(=O)N[C@@H](CCC(=O)O)C(=O)N[C@@H](Cc1ccccc1)C(=O)N[C@H](C(=O)N[C@@H](C)C(=O)N[C@@H](Cc1c[nH]c2ccccc12)C(=O)N[C@@H](CC(C)C)C(=O)N[C@H](C(=O)N[C@@H](CCCNC(=N)N)C(=O)NCC(=O)N[C@@H](CCCNC(=N)N)C(=O)NCC(=O)O)C(C)C)[C@@H](C)CC)C(=O)O [Liraglutide, liraglutide] |  |  |  |  |  |  |  |  |  |  |  | strong signal in conditioned taste aversion models |  |  |  |  | 
CCCCCCCCCCCCCCCC(=O)N[C@@H](CCC(=O)NCCCC[C@H](NC(=O)[C@H](CO)NC(=O)[C@@H]1CCCN1C(=O)[C@@H]1CCCN1C(=O)[C@@H]1CCCN1C(=O)[C@H](C)NC(=O)CNC(=O)[C@H](CO)NC(=O)[C@H](CO)NC(=O)[C@@H]1CCCN1C(=O)CNC(=O)CNC(=O)[C@H](C)NC(=O)[C@H](CC(C)C)NC(=O)[C@H](CC(C)C)NC(=O)[C@H](Cc1c[nH]c2ccccc12)NC(=O)[C@H](CC(N)=O)NC(=O)[C@@H](NC(=O)[C@H](Cc1ccccc1)NC(=O)[C@H](CCC(=O)O)NC(=O)C(C)(C)NC(=O)[C@H](C)NC(=O)[C@H](C)NC(=O)[C@H](CCC(N)=O)NC(=O)[C@H](CCCCN)NC(=O)[C@H](CC(=O)O)NC(=O)[C@H](CC(C)C)NC(=O)[C@H](Cc1ccc(O)cc1)NC(=O)[C@@H](NC(=O)[C@H](CO)NC(=O)[C@H](Cc1ccc(O)cc1)NC(=O)[C@H](CC(=O)O)NC(=O)[C@H](CO)NC(=O)[C@@H](NC(=O)[C@H](Cc1ccccc1)NC(=O)[C@@H](NC(=O)CNC(=O)[C@H](CCC(=O)O)NC(=O)CSCC(=O)NCCN1CCC(O)CC1=O)[C@@H](C)O)[C@@H](C)O)[C@@H](C)CC)C(C)C)C(N)=O)C(=O)O (single isomer, unassigned) [Compound 202] | > 1000 |  |  | < 0.1 |  |  |  | 0.1 to 1 |  | 67 | 4 (Score 4 = 76-100%) |  |  |  |  |  | 
CCCCCCCCCCCCCCCC(=O)N[C@@H](CCC(=O)NCCCC[C@H](NC(=O)[C@H](CO)NC(=O)[C@@H]1CCCN1C(=O)[C@@H]1CCCN1C(=O)[C@@H]1CCCN1C(=O)[C@H](C)NC(=O)CNC(=O)[C@H](CO)NC(=O)[C@H](CO)NC(=O)[C@@H]1CCCN1C(=O)CNC(=O)CNC(=O)[C@H](C)NC(=O)[C@H](CC(C)C)NC(=O)[C@H](CC(C)C)NC(=O)[C@H](Cc1c[nH]c2ccccc12)NC(=O)[C@H](CC(N)=O)NC(=O)[C@@H](NC(=O)[C@H](Cc1ccccc1)NC(=O)[C@H](CCC(=O)O)NC(=O)C(C)(C)NC(=O)[C@H](C)NC(=O)[C@H](C)NC(=O)[C@H](CCC(N)=O)NC(=O)[C@H](CCCCN)NC(=O)[C@H](CC(=O)O)NC(=O)[C@H](CC(C)C)NC(=O)[C@H](Cc1ccc(O)cc1)NC(=O)[C@@H](NC(=O)[C@H](CO)NC(=O)[C@H](Cc1ccc(O)cc1)NC(=O)[C@H](CC(=O)O)NC(=O)[C@H](CO)NC(=O)[C@@H](NC(=O)[C@H](Cc1ccccc1)NC(=O)[C@@H](NC(=O)CNC(=O)[C@H](CCC(=O)O)NC(=O)CSCC(=O)NCCN1C(=O)[C@@H](C)[C@@H](C)C1=O)[C@@H](C)O)[C@@H](C)O)[C@@H](C)CC)C(C)C)C(N)=O)C(=O)O [Compound 96] | > 1000 |  | 1 to 10 | 1 to 10 | 94 | 94 | 0.1 to 1 | 0.1 to 1 | 90 | 90 | 4 (Score 4 = 76-100%) |  | 4 (AUC score 4 = 76-100%) |  |  |  | 
glucagon-like peptide-1 [GLP-1] |  |  |  |  |  |  |  |  |  |  |  |  |  | potent recruiters of β-arrestin |  |  | 
CCCCCCCCCCCCCCCC(=O)N[C@@H](CCC(=O)NCCCC[C@H](NC(=O)[C@H](CO)NC(=O)[C@@H]1CCCN1C(=O)[C@@H]1CCCN1C(=O)[C@@H]1CCCN1C(=O)[C@H](C)NC(=O)CNC(=O)[C@H](CO)NC(=O)[C@H](CO)NC(=O)[C@@H]1CCCN1C(=O)CNC(=O)CNC(=O)[C@H](C)NC(=O)[C@H](CC(C)C)NC(=O)[C@H](CC(C)C)NC(=O)[C@H](Cc1c[nH]c2ccccc12)NC(=O)[C@H](CC(N)=O)NC(=O)[C@@H](NC(=O)[C@H](Cc1ccccc1)NC(=O)[C@H](CCC(=O)O)NC(=O)C(C)(C)NC(=O)[C@H](C)NC(=O)[C@H](C)NC(=O)[C@H](CCC(N)=O)NC(=O)[C@H](CCCCN)NC(=O)[C@H](CC(=O)O)NC(=O)[C@H](CC(C)C)NC(=O)[C@H](Cc1ccc(O)cc1)NC(=O)[C@@H](NC(=O)[C@H](CO)NC(=O)[C@H](Cc1ccc(O)cc1)NC(=O)[C@H](CC(=O)O)NC(=O)[C@H](CO)NC(=O)[C@@H](NC(=O)[C@H](Cc1ccccc1)NC(=O)[C@@H](NC(=O)CNC(=O)[C@H](CCC(=O)O)NC(=O)CCNC(=O)CN1CCCC1=O)[C@@H](C)O)[C@@H](C)O)[C@@H](C)CC)C(C)C)C(N)=O)C(=O)O [Compound 264] | < 10 | 3 (AUC score 3 = 51-75%) |  |  |  |  |  | 1 to 10 |  |  | 1 (Score 1 = 0-25%) |  |  |  | < 0.1 | 100 | 90
